Measurements taken from ChEMBL document CHEMBL1255476, “Telbivudine exhibits no inhibitory activity against HIV-1 clinical isolates in vitro” (Antimicrob Agents Chemother, 2010).

Tests used:
[1] = system: Human immunodeficiency virus 1; test: Antiviral activity against HIV1 NL4-3 infected in HEK293 cells assessed as inhibition of virus replication after 72 hrs; type: functional, organism-based; conditions: Human immunodeficiency virus 1, NL4-3, HEK293, 72 h
[2] = system: Human immunodeficiency virus 1; test: Antiviral activity against HIV1 subtype A isolate 1 infected in HEK293 cells assessed as inhibition of virus replication after 72 hrs; type: functional, organism-based; conditions: Human immunodeficiency virus 1, HEK293, 72 h
[3] = system: Human immunodeficiency virus 1; test: Antiviral activity against HIV1 subtype C isolate 6 infected in HEK293 cells assessed as inhibition of virus replication after 72 hrs; type: functional, organism-based; conditions: Human immunodeficiency virus 1, HEK293, 72 h
HEK293 [4] = test: Cytotoxicity against human HEK293 cells at 100 uM; type: cell-based; conditions: hek293, 100 µM
[5] = system: Human immunodeficiency virus 1; test: Antiviral activity against HIV1 subtype B isolate 3 infected in HEK293 cells assessed as inhibition of virus replication after 72 hrs; type: functional, organism-based; conditions: Human immunodeficiency virus 1, subtype B isolate 3, HEK293, 72 h
[6] = system: Human immunodeficiency virus 1; test: Antiviral activity against HIV1 subtype B isolate 4 infected in HEK293 cells assessed as inhibition of virus replication after 72 hrs; type: functional, organism-based; conditions: Human immunodeficiency virus 1, HEK293, 72 h
[7] = system: Human immunodeficiency virus 1; test: Antiviral activity against HIV1 subtype D isolate 8 infected in HEK293 cells assessed as inhibition of virus replication after 72 hrs; type: functional, organism-based; conditions: Human immunodeficiency virus 1, subtype D isolate 8, HEK293, 72 h
[8] = system: Human immunodeficiency virus 1; test: Antiviral activity against HIV1 subtype C isolate 7 infected in HEK293 cells assessed as inhibition of virus replication after 72 hrs; type: functional, organism-based; conditions: Human immunodeficiency virus 1, subtype C isolate 7, HEK293, 72 h
[9] = system: Human immunodeficiency virus 1; test: Antiviral activity against HIV1 subtype A isolate 2 infected in HEK293 cells assessed as inhibition of virus replication after 72 hrs; type: functional, organism-based; conditions: Human immunodeficiency virus 1, subtype A isolate 2, HEK293, 72 h
[10] = system: Human immunodeficiency virus 1; test: Antiviral activity against HIV1 subtype BF isolate 5 infected in HEK293 cells assessed as inhibition of virus replication after 72 hrs; type: functional, organism-based; conditions: Human immunodeficiency virus 1, subtype BF isolate 5, HEK293, 72 h
[11] = system: Human immunodeficiency virus 1; test: Antiviral activity against HIV1 expressing reverse transcriptase D67N/K70R/T215F/K219E/M184V mutant infected in HEK293 cells assessed as inhibition of virus replication after 72 hrs; type: functional, organism-based; conditions: Human immunodeficiency virus 1, HEK293, 72 h
[12] = system: Human immunodeficiency virus 1; test: Antiviral activity against HIV1 expressing reverse transcriptase K103N/Y181C/G190A mutant infected in HEK293 cells assessed as inhibition of virus replication after 72 hrs; type: functional, organism-based; conditions: Human immunodeficiency virus 1, HEK293, 72 h
HEK293 [13] = test: Cytotoxicity against human HEK293 cells at 2000 uM; type: cell-based; conditions: hek293, 2000 µM
[14] = Cmax in human at 600 mg; type: ADME, organism-based; set-up: dose 600 mg; conditions: in vivo
HEK293 [15] = test: Cytotoxicity against human HEK293 cells at 600 uM; type: cell-based; conditions: hek293, 600 µM

SMILES	EC50 [1] [µM]	EC50 [2] [µM]	EC50 [3] [µM]	Activity (HEK293 [4])	EC50 [5] [µM]	EC50 [6] [µM]	EC50 [7] [µM]	EC50 [8] [µM]	EC50 [9] [µM]	EC50 [10] [µM]	EC50 [11] [µM]	EC50 [12] [µM]	Activity (HEK293 [13])	Cmax [14] [µM]	Activity (HEK293 [15])
C=C1[C@H](CO)[C@@H](O)C[C@@H]1n1cnc2c(=O)[nH]c(N)nc21.O [ENTECAVIR]	12.6	12.5	9.51	Non-toxic	15.1	13.5	7.62	9.95	13.2	13.6	> 100	11.7	–	–	–
Nc1ccn([C@@H]2CS[C@H](CO)O2)c(=O)n1 [LAMIVUDINE]	4.68	3.54	3.9	–	4.78	5.43	3.25	4.06	4.48	4.24	> 300	7.16	–	–	–
Cc1cn([C@@H]2C[C@@H](O)[C@H](CO)O2)c(=O)[nH]c1=O [TELBIVUDINE]	> 600	> 600	> 600	–	> 600	> 600	> 600	> 600	> 600	> 600	> 600	> 600	Non-toxic	13.2	Non-toxic
